Laboratory results: paper PMC3199744, “Preformulation and stability in biological fluids of the retrocyclin RC-101, a potential anti-HIV topical microbicide” (AIDS Research and Therapy, 2011)

How the values were obtained:
[1] = system: human ectocervical tissue; conditions: preliminary studies, data not shown
[2] = Oxidation of RC-101 by hydrogen peroxide, HPLC; conditions: EDTA 1.0 μg/mL, H2O2 0.002%, RC-101 500 μg/mL, HPLC over time
Method: For all pre-formulation studies described below, triplicate solutions of RC-101 (500 μg/mL) were prepared in either water or aqueous buffer solution. Thermal degradation studies were conducted at 25, 37, and 65°C for a minimum period of 1 week. The effect of pH on the stability of RC-101 was evaluated over the pH range from 3 to 12 using 10 mM phosphate buffer solutions, at low (50 mmol/kg) and high (500 mmol/kg) ionic strength. Oxidation of RC-101 was evaluated by exposing a solution of RC-101 to hydrogen peroxide (H2O2) at concentrations of 3.0, 0.08, and 0.002% (v/v). The high H2O2 concentration (3.0%) was selected as a forced degradation concentration. […] Protection against oxidation was investigated by the addition of antioxidants commonly used in pharmaceutical products. The antioxidants used in this study were: methionine (95.2 μg/mL or 250 μg/mL), cysteine (95.2 μg/mL), glutathione (90.9 μg/mL), vitamin E TPGS (90.9 μg/mL), ascorbic acid (1.0 mg/mL), sodium ascorbate (1.0 mg/mL), and EDTA (1.0 μg/mL).
RC-101 concentration after exposure to preformulation conditions was analyzed by HPLC as previously described [11]. Briefly, the HPLC system (Waters Corporation, Milford, MA) was equipped with an autoinjector model 717, a quaternary pump model 600, and an ultraviolet (UV) detector model 2487 set up at 215 nm. Separation of RC-101 from degradant products was achieved using a Phenomenex Jupiter 5 μC5 300 Å (4.6 × 250 mm) column (Phenomenex, Torrance, CA) protected by a Widepore C5 (4 × 3.0 mm) guard cartridge (Phenomenex). The gradient consisted of mobile phase A (0.1% TFA in water (v/v)), and mobile phase B (0.07% TFA in acetonitrile (v/v)) pumped at a flow rate of 1.0 mL/min. […]
HPLC data obtained from the preformulation studies were expressed as the average percentage of the peak area from time 0 ± standard deviation, n = 3. Results were analyzed by one-way analysis of variance (ANOVA) with multiple comparisons of individual time points by using post hoc Bonferroni correction to detect significant differences under different conditions. […]

[3] = system: normal vaginal microflora; conditions: preliminary studies, data not shown

protection of RC-101 against oxidation after exposure to H2O2 [2]: protection
SMILES: O=C(O)CN(CCN(CC(=O)O)CC(=O)O)CC(=O)O [EDTA, Ethylenediamine tetraacetic acid]
toxic concentration [1]: ≥ 1%
toxic concentration [3]: ≥ 1%
